# Values of other authors, collected in patent US6645986B2 (Pfizer Products, Inc., priority 2000, dated 2003).
# Counter-ions that a name gives are not always drawn.
# Conditions: compared with the anhydrous mesylate salt
smiles,measurement,value
"C[C@@H]([C@@H](O)c1ccc(O)cc1)N1CCC(O)(c2ccccc2)CC1 [mesylate salt trihydrate, (1S,2S)-1-(4-hydroxyphenyl)-2-(4-hydroxy-4-phenylpiperidin-1-yl)-1-propanol mesylate trihydrate]",stability of crystalline form,more stable crystalline form than the anhydrous mesylate salt
